We go through 6 substances from US12319721B2 (Purdue Research Foundation, priority 2018, dated 2025).

Where no end group is shown, it is not given here. [ ]: non-standard residue; d: D form. mp4 = 4 mini PEG linker

For experiment [1], the system named is healed fractured femur. The experiment is described as follows: Femur fracture model, postmortem four-point bend of the healed femur. In kind it is in vivo, Swiss Webster mice. Conditions: 16 days, 0.1, 1 and 10 nmol daily subcutaneous, n=5.
For experiment [2], the system named is fracture callus of fractured femur. As to the kind of experiment: Femur fracture model, microCT of the fracture callus (BV/TV, BV, TbTh, TbSp). The experiment is classed as in vivo, Swiss Webster mice. The text has this:
All in vivo data included herein are from Swiss Webster mice. […] 1×concentration represents 1 nmol/day, 10× represents 10 nmol/day, 100×represents 100 nmol/day and most studies have an n of 5.
The term “BV/TV” means the bone volume divided by total volume of the 100 thickest micro CT slices of the fracture callus.
The term “TbTh” means the trabecular thickness of the 100 thickest micro CT slices of the fracture callus.
The term “[…]” means the overall bone volume of the 100 thickest micro CT slices of the fracture callus.
The term “TbSp” means the spacing between the trabecula in the 100 thickest micro CT slices of the fracture callus.
The targeted conjugates were synthesized using standard Fmoc solid-phase peptide synthesis, as described above. To ensure the conjugates' activity, mouse pre osteo-blast (MCTC3-1) cells were treated with the targeted and untargeted compounds for three days at concentrations from 1 pM to 100 nM. After three days of treatment, the cells were harvested, and the ribonucleic acid (RNA) was purified from the cells. Expression levels of ALP, RUNx2, OSX, osteo-pontin (OPN), collagen 1A (Col-1A), OPG, RANKL, scle-rostin gene (SOST), and OC were quantified via quantitative reverse transcription polymerase chain reaction (RT-qPCR). Once the biological activity of the conjugates was confirmed, they were tested in vivo in a fracture model. Aseptic surgical techniques were used to place a 23-gage needle as in intramedullary nail in the femur of anesthetized, 12-week-old Swiss Webster mice for internal fixation before fracture. Femur fractures were induced using a drop weight fracture device from RISystem. The mice received buprenorphine for three days post fracture. […] Fracture healing was assessed using microCT (Scanco Medical Ag). Morphometric parameters were quantified in the 100 widest slices of the fracture callus. Trabecular thickness (TbTh), trabecular spacing (TbSp), total volume (TV), and volume of calcified callus (BV) were calculated. Fractured femurs were tested for strength in a four-point bend to failure using an Electro Force TestBench (TA Instruments). Lower supports were 10 mm apart on the anterior face of the femur in contact with the proximal and distal diaphysis. Upper supports were 4 mm apart and spanned the entire fracture callus on the diaphysis. Force was applied from the posterior face of the femur with a displacement rate of 0.3 mm/sec. Peak load, yield load, stiffness, displacement post yield, work to fracture, and deformation data were generated. Statistical analysis was performed using a two-way analysis of variance (ANOVA) and a Tukey post-hoc analysis with significance reported at the 95% confidence level. All animal experiments were performed in accordance with protocols approved by Purdue University's Institutional Animal Care and Use Committee (IACUC).

The subject of experiment [3] is healed fractured femur. As to the kind of experiment: Femur fracture model, postmortem four-point bend of the healed femur. In kind it is in vivo, Swiss Webster mice. The text has this: All in vivo data included herein are from Swiss Webster mice. All mice received an osteotomy on their right femur and received subcutaneous drug administration daily for either 2, 3 or 4 weeks, as indicated, for each compound. 1×concentration represents 1 nmol/day, 10× represents 10 nmol/day, 100×represents 100 nmol/day and most studies have an n of 5.
The term “Peak Load” means a postmortem 4 point bend of the healed femur. Peak load represents the maximum force the healed femur withstood before it refractured.
(§1) The targeted conjugates were synthesized using standard Fmoc solid-phase peptide synthesis, as described above. To ensure the conjugates' activity, mouse pre osteo-blast (MCTC3-1) cells were treated with the targeted and untargeted compounds for three days at concentrations from 1 pM to 100 nM. After three days of treatment, the cells were harvested, and the ribonucleic acid (RNA) was purified from the cells. Expression levels of ALP, RUNx2, OSX, osteo-pontin (OPN), collagen 1A (Col-1A), OPG, RANKL, scle-rostin gene (SOST), and OC were quantified via quantitative reverse transcription polymerase chain reaction (RT-qPCR). Once the biological activity of the conjugates was confirmed, they were tested in vivo in a fracture model. Aseptic surgical techniques were used to place a 23-gage needle as in intramedullary nail in the femur of anesthetized, 12-week-old Swiss Webster mice for internal fixation before fracture. Femur fractures were induced using a drop weight fracture device from RISystem. The mice received buprenorphine for three days post fracture. The mice were dosed subcutaneously each day for two weeks, three weeks, 4 weeks, or 17 days. Fracture healing was assessed using microCT (Scanco Medical Ag). Morphometric parameters were quantified in the 100 widest slices of the fracture callus. Trabecular thickness (TbTh), trabecular spacing (TbSp), total volume (TV), and volume of calcified callus (BV) were calculated. Fractured femurs were tested for strength in a four-point bend to failure using an Electro Force TestBench (TA Instruments). Lower supports were 10 mm apart on the anterior face of the femur in contact with the proximal and distal diaphysis. Upper supports were 4 mm apart and spanned the entire fracture callus on the diaphysis. Force was applied from the posterior face of the femur with a displacement rate of 0.3 mm/sec. Peak load, yield load, stiffness, displacement post yield, work to fracture, and deformation data were generated. Statistical analysis was performed using a two-way analysis of variance (ANOVA) and a Tukey post-hoc analysis with significance reported at the 95% confidence level. All animal experiments were performed in accordance with protocols approved by Purdue University's Institutional Animal Care and Use Committee (IACUC).

The subject of experiment [4] is fracture callus of fractured femur. As to the kind of experiment: Femur fracture model, microCT of the fracture callus, CD-1 mice. In kind it is in vivo, CD-1 male mice. Conditions: 4 weeks, 50 nmol daily subcutaneous (50×), n=10. The protocol: The targeted conjugates were synthesized using standard Fmoc solid-phase peptide synthesis, as described above. To ensure the conjugates' activity, mouse pre osteo-blast (MCTC3-1) cells were treated with the targeted and untargeted compounds for three days at concentrations from 1 pM to 100 nM. After three days of treatment, the cells were harvested, and the ribonucleic acid (RNA) was purified from the cells. Expression levels of ALP, RUNx2, OSX, osteo-pontin (OPN), collagen 1A (Col-1A), OPG, RANKL, scle-rostin gene (SOST), and OC were quantified via quantitative reverse transcription polymerase chain reaction (RT-qPCR). Once the biological activity of the conjugates was confirmed, they were tested in vivo in a fracture model. Aseptic surgical techniques were used to place a 23-gage needle as in intramedullary nail in the femur of anesthetized, 12-week-old Swiss Webster mice for internal fixation before fracture. Femur fractures were induced using a drop weight fracture device from RISystem. The mice received buprenorphine for three days post fracture. […] Fracture healing was assessed using microCT (Scanco Medical Ag). Morphometric parameters were quantified in the 100 widest slices of the fracture callus. Trabecular thickness (TbTh), trabecular spacing (TbSp), total volume (TV), and volume of calcified callus (BV) were calculated. […]

The subject of experiment [5] is healed fractured femur. The experiment is described as follows: Femur fracture model, postmortem four-point bend of the healed femur, CD-1 mice. To be noted: 4 weeks, 50 nmol daily subcutaneous (50×), n=10. The experiment is classed as in vivo, CD-1 male mice. The protocol: as §1, with “Statistical analysis was performed using a two-way analysis of variance (ANOVA) and a Tukey post-hoc analysis with significance reported at the 95% confidence level. All animal experiments were performed in accordance with protocols approved by Purdue University's Institutional Animal Care and Use Committee (IACUC).” left out

The mark [6] stands for this setting: 3 weeks, 0.1, 1 and 10 nmol daily subcutaneous.
The mark [7] stands for this setting: 3 weeks, 0.1, 1 and 10 nmol daily subcutaneous, n=5.
Where [8] appears, read: 17 days, 1, 10 and 100 nmol daily subcutaneous, n=5.

Consider “Annexin_mp4_(D)E10: Annexin 1 N-terminal fragment with 10 glutamic acids, SEQ ID NO: 26, FIG. 81 (Ac-AMVSEFLKQAWFIENEEQEYVQTVY-{mini PEG-mini PEG-mini PEG-mini PEG-dE-dE-dE-dE-dE-dE-dE-dE-dE-dE})”, for which, in the experiment on healed fractured femur [1], the “Max load (bone strength)” value is listed as “raises bone strength” and the “Work to fracture (bone strength)” value is recorded as “raises bone strength”.

Regarding “JNK3_Mp4_(D)E10: 25-residue arrestin-3 peptide (JNK3) with mp4 linker and 10 glutamic acids, SEQ ID NO: 21, FIG. 49 (MGEKPGTRVFKKSSPNCKLTVYLGK; mp4 linker, 10 D-glutamic acids; SITE 25 C-term Lysine modified with 4 mini PEG linker-d(Glutamic acid)10 moiety)”, the “BV/TV (bone density)” value in experiment [2] (setting [6]) is given as “raises bone density”. Besides, the “BV (bone volume, bone mineralization)” value in experiment [2] (setting [7]) is “raises bone mineralization”. Also, in the experiment with healed fractured femur [3] (setting [7]), the “Max load (bone strength)” value is given as “raises bone strength” and the “Work to fracture (bone strength)” value was “raises bone strength”.

With “Osteostatin_mp4_(D)E10: Osteostatin (PTHrP[107-139]) with 10 glutamic acids, SEQ ID NO: 23, FIG. 59”, the “BV/TV (bone density)” value in experiment [2] (setting [6]) was “raises bone density”. The “Tbth (trabecular thickness, bone quality)” value in experiment [2] (setting [7]) is reported as “raises bone quality”. Besides, in the experiment on healed fractured femur [3] (setting [7]), the “Max load (bone strength)” value is “raises bone strength”, the Stiffness entry is on record as “raises bone stiffness” and the “Work to fracture (bone strength)” value is reported as “raises bone strength”.

Regarding “Preptin(1-34)_mp4_(D)E10: Preptin (1-34) with mp4 linker and 10 glutamic acids, SEQ ID NO: 24, FIG. 70 ({dE-dE-dE-dE-dE-dE-dE-dE-dE-dE-mp4}-VRGASQRWTDYQFFGVPYRPFDPLVAQSTSVD)”, in experiment [4], the “BV (bone volume, bone mineralization)” value is recorded as “significantly raises bone mineralization” and the “BV/TV (bone density)” value was “significantly raises bone density”. In the experiment with healed fractured femur [5], the “Max load (bone strength)” value is reported as “significantly raises bone strength”, the “Post yield displacement (bone brittleness)” value is on record as “significantly reduces the bone brittleness” and the “Work to fracture (bone strength)” value is “significantly raises bone strength”.

Consider “QK_mp4_(D)E10: VEGF mimetic 15 amino acid peptide QK attached by mini-peg spacer to 10 glutamic acids, SEQ ID NO: 25 ({dE-dE-dE-dE-dE-dE-dE-dE-dE-dE-mp4}-KLTWQELYQLKYKGI)”, for which, in experiment [2] (setting [8]), the “BV (bone volume, bone mineralization)” value was “raises bone mineralization” and the “BV/TV (bone density)” value was “raises bone density”. Besides, in the experiment with healed fractured femur [3] (setting [8]), the “Max load (bone strength)” value is on record as “raises bone strength” and the “Work to fracture (bone strength)” value is reported as “raises bone strength”.

For the substance “substance P D10: substance P with 4 mini PEG linker and conjugated with 10 aspartate acids, SEQ ID NO: 4/43, FIG. 32 (chain 1 {Asp-Asp-Asp-Asp-Asp-Asp-Asp-Asp-Asp-Asp-mp4}-RPKPQQFFGLM; chain 2 DDDDDDDDDD[mp4]RPKPQQFFGLM; ends and bridges not checked)”, the BV/TV result in experiment [2] (4 weeks, various concentrations (1, 10 and in part 100 nmol/day), subcutaneous daily) is “dose dependent manner”. The “peak load (max load) of healed femur” value with healed fractured femur [3] (4 weeks, 10× (10 nmol/day)) is listed as 30-35 Newtons.
